# Test results from patent US6403794B2, “Substituted 2-amino-4-alkylamino-1,3,5-triazines as herbicides” (Bayer Aktiengesellschaft, priority 1996, dated 2002).
# Experiments:
# Abutilon [1] = assay: Pre-emergence test; assay type: in vivo; settings: Abutilon, 504 h, greenhouse, after three weeks, read-out: degree of damage to the plants (% damage), Abutilon; for pest or weed control at 1000 g/ha: 1000 g of ai./ha; for pest or weed control at 500 g/ha: 500 g of ai./ha
# Method: (§1) Solvent: 5 parts by weight of acetone
# (§2) Emulsifier: 1 part by weight of alkylaryl polyglycol ether
# (§3) To produce a suitable preparation of active compound, 1 part by weight of active compound is mixed with the stated amount of solvent, the stated amount of emulsifier is added and the concentrate is diluted with water to the desired concentration.
# (§4) Seeds of the test plants are sown in normal soil. After about 24 hours, the soil is watered with the preparation of active compound. The amount of water per unit area is advantageously kept constant. The concentration of active compound in the preparation is immaterial, only the application rate of active compound per unit area matters.
# (§5) After three weeks, the degree of damage to the plants is scored visually in % damage in comparison to the development of the untreated control.
# (§6) 0%=no effect (like untreated control)
# Amaranthus [2] = assay: Pre-emergence test; assay type: in vivo; settings: Amaranthus, 504 h, greenhouse, after three weeks, read-out: degree of damage to the plants (% damage), Amaranthus; for pest or weed control at 1000 g/ha: 1000 g of ai./ha; for pest or weed control at 500 g/ha: 500 g of ai./ha
# Method: as §1, §2, §3, §4, §5, §6
# Maize = assay: Pre-emergence test; assay type: in vivo; settings: greenhouse, 1000 g of ai./ha, after three weeks
# Method: as §1, §2, §3, §4, §5, §6
# Sinapis [3] = assay: Pre-emergence test; assay type: in vivo; settings: greenhouse, 1000 g of ai./ha, after three weeks
# Method: as §1, §2, §3, §4, §5, §6
# weeds [4] = assay: Pre-emergence test; assay type: in vivo
# Method: as §1, §2, §3, §4, §5, §6
# Abutilon [5] = assay: Post-emergence test; assay type: in vivo; settings: greenhouse, 1000 g of ai./ha, after three weeks
# Method: as §1, §2, §3
# (§7) Test plants which have a height of 5-15 cm are sprayed with the preparation of active compound such that the particular amounts of active compounds desired are applied per unit area. The concentration of the spray liquor is chosen so that the particular amounts of active compound desired are applied in 1000 l of water/ha.
# (§8) After three weeks, the degree of damage to the plants is scored visually in % damage, in comparison to the untreated control.
# as §6
# Alopecurus [6] = assay: Post-emergence test; assay type: in vivo; settings: greenhouse, 1000 g of ai./ha, after three weeks
# Method: as §1, §2, §3, §7, §8, §6
# Amaranthus [7] = assay: Post-emergence test; assay type: in vivo; settings: greenhouse, after three weeks; for pest or weed control at 1000 g/ha / pest or weed control at 500 g/ha: Amaranthus, 504 h, read-out: degree of damage to the plants (% damage), Amaranthus; for pest or weed control at 500 g/ha: 500 g of ai./ha
# Method: as §1, §2, §3, §7, §8, §6
# Galium = assay: Post-emergence test; assay type: in vivo; settings: greenhouse, 1000 g of ai./ha, after three weeks
# Method: as §1, §2, §3, §7, §8, §6
# Setaria [8] = assay: Post-emergence test; assay type: in vivo; settings: greenhouse, after three weeks; for pest or weed control at 1000 g/ha / pest or weed control at 500 g/ha: Setaria, 504 h, read-out: degree of damage to the plants (% damage), Setaria; for pest or weed control at 500 g/ha: 500 g of ai./ha
# Method: as §1, §2, §3, §7, §8, §6
# Xanthium [9] = assay: Post-emergence test; assay type: in vivo; settings: greenhouse, 1000 g of ai./ha, after three weeks
# Method: as §1, §2, §3, §7, §8, §6
# weeds [10] = assay: Post-emergence test; assay type: in vivo
# Method: as §1, §2, §3, §7, §8, §6
# Echinochloa [11] = assay: Post-emergence test; assay type: in vivo; settings: greenhouse, 500 g of ai./ha, after three weeks
# Method: as §1, §2, §3, §7, §8, §6
# Ipomoea = assay: Post-emergence test; assay type: in vivo; settings: greenhouse, 500 g of ai./ha, after three weeks
# Method: as §1, §2, §3, §7, §8, §6
# Polygonum [12] = assay: Post-emergence test; assay type: in vivo; settings: greenhouse, 500 g of ai./ha, after three weeks
# Method: as §1, §2, §3, §7, §8, §6
# Solanum = assay: Post-emergence test; assay type: in vivo; settings: greenhouse, 500 g of ai./ha, after three weeks
# Method: as §1, §2, §3, §7, §8, §6
# Wheat [13] = assay: Post-emergence test; assay type: in vivo; settings: greenhouse, 500 g of ai./ha, after three weeks
# Method: as §1, §2, §3, §7, §8, §6
# Datura = assay: Pre-emergence test; assay type: in vivo; settings: greenhouse, 500 g of ai./ha, after three weeks
# Method: as §1, §2, §3, §4, §5, §6
# Digitaria = assay: Pre-emergence test; assay type: in vivo; settings: greenhouse, 500 g of ai./ha, after three weeks
# Method: as §1, §2, §3, §4, §5, §6
# Echinochloa [14] = assay: Pre-emergence test; assay type: in vivo; settings: greenhouse, 500 g of ai./ha, after three weeks
# Method: as §1, §2, §3, §4, §5, §6
# Polygonum [15] = assay: Pre-emergence test; assay type: in vivo; settings: greenhouse, 500 g of ai./ha, after three weeks
# Method: as §1, §2, §3, §4, §5, §6
# Veronica = assay: Pre-emergence test; assay type: in vivo; settings: greenhouse, 500 g of ai./ha, after three weeks
# Method: as §1, §2, §3, §4, §5, §6
# Wheat [16] = assay: Pre-emergence test; assay type: in vivo; settings: greenhouse, 500 g of ai./ha, after three weeks
# Method: as §1, §2, §3, §4, §5, §6
# Avena fatua = assay: Post-emergence test; assay type: in vivo; settings: greenhouse, 1000 g of ai./ha, after three weeks
# Method: as §1, §2, §3, §7, §8, §6
# Cyperus = assay: Post-emergence test; assay type: in vivo; settings: greenhouse, 1000 g of ai./ha, after three weeks
# Method: as §1, §2, §3, §7, §8, §6
# Sinapis [17] = assay: Post-emergence test; assay type: in vivo; settings: greenhouse, 1000 g of ai./ha, after three weeks
# Method: as §1, §2, §3, §7, §8, §6
# Alopecurus [18] = assay: Pre-emergence test; assay type: in vivo; settings: greenhouse, 1000 g of ai./ha, after three weeks
# Method: as §1, §2, §3, §4, §5, §6
# Setaria [19] = assay: Pre-emergence test; assay type: in vivo; settings: greenhouse, 1000 g of ai./ha, after three weeks
# Method: as §1, §2, §3, §4, §5, §6
# Xanthium [20] = assay: Pre-emergence test; assay type: in vivo; settings: greenhouse, 1000 g of ai./ha, after three weeks
# Method: as §1, §2, §3, §4, §5, §6
SMILES,activity against weeds (weeds [4]),"degree of damage to the plants (% damage), Abutilon (Abutilon [5])","degree of damage to the plants (% damage), Alopecurus (Alopecurus [6])",pest or weed control at 1000 g/ha (Amaranthus [7]; 1000 g of ai./ha),pest or weed control at 1000 g/ha (Setaria [8]; 1000 g of ai./ha),"degree of damage to the plants (% damage), Xanthium (Xanthium [9])",activity against weeds (weeds [10]),pest or weed control at 500 g/ha (Amaranthus [7]),"degree of damage to the plants (% damage), Echinochloa (Echinochloa [11])","degree of damage to the plants (% damage), Ipomoea (Ipomoea)","degree of damage to the plants (% damage), Polygonum (Polygonum [12])",pest or weed control at 500 g/ha (Setaria [8]),"degree of damage to the plants (% damage), Solanum (Solanum)","degree of damage to the plants (% damage), Wheat (Wheat [13])",also measured
CCC(COc1ccccc1)Nc1nc(N)nc(C(F)(F)F)n1 (stereo not shown) [Example 2],strong activity,100%,70%,100%,100%,100%,strong activity,–,–,–,–,–,–,–,"pest or weed control at 1000 g/ha (Abutilon [1]): 80%; pest or weed control at 1000 g/ha (Amaranthus [2]): 100%; degree of damage to the plants (% damage), Maize (Maize): 20%; degree of damage to the plants (% damage), Sinapis (Sinapis [3]): 100%; degree of damage to the plants (% damage), Galium (Galium): 100%; melting point: 100 °C"
CCC(CCc1cccs1)Nc1nc(N)nc(C(F)(F)F)n1 (stereo not shown) [Example 11],–,–,–,–,–,–,strong activity,100%,80%,100%,100%,95%,100%,10%,–
CCC(CCc1ccsc1)Nc1nc(N)nc(C(F)(F)F)n1 (stereo not shown) [Example 12],strong activity,–,–,–,–,–,strong activity,100%,90%,100%,100%,95%,100%,10%,"pest or weed control at 500 g/ha (Abutilon [1]): 100%; pest or weed control at 500 g/ha (Amaranthus [2]): 100%; degree of damage to the plants (% damage), Datura (Datura): 100%; degree of damage to the plants (% damage), Digitaria (Digitaria): 80%; degree of damage to the plants (% damage), Echinochloa (Echinochloa [14]): 100%; degree of damage to the plants (% damage), Polygonum (Polygonum [15]): 100%; degree of damage to the plants (% damage), Veronica (Veronica): 100%; degree of damage to the plants (% damage), Wheat (Wheat [16]): 0%"
CCC(CCc1ccsc1)Nc1nc(N)nc(C(C)F)n1 (stereo not shown) [Example 19],strong activity,–,–,–,–,–,strong activity,100%,100%,100%,100%,100%,100%,–,"pest or weed control at 500 g/ha (Abutilon [1]): 100%; pest or weed control at 500 g/ha (Amaranthus [2]): 100%; degree of damage to the plants (% damage), Datura (Datura): 100%; degree of damage to the plants (% damage), Digitaria (Digitaria): 100%; degree of damage to the plants (% damage), Echinochloa (Echinochloa [14]): 100%; degree of damage to the plants (% damage), Polygonum (Polygonum [15]): 100%; degree of damage to the plants (% damage), Veronica (Veronica): 100%; degree of damage to the plants (% damage), Wheat (Wheat [16]): 0%"
CCC(CCc1cccs1)Nc1nc(N)nc(C(C)F)n1 (stereo not shown) [Example 23],–,100%,90%,100%,100%,100%,strong activity,–,–,–,–,–,–,–,"degree of damage to the plants (% damage), Avena fatua (Avena fatua): 100%; degree of damage to the plants (% damage), Cyperus (Cyperus): 100%; degree of damage to the plants (% damage), Sinapis (Sinapis [17]): 100%"
CCC(CCc1cccs1)Nc1nc(N)nc(C(C)(C)F)n1 (stereo not shown) [Example 24],–,–,–,–,–,–,strong activity,100%,100%,100%,95%,80%,95%,–,–
CCC(CCc1ccsc1)Nc1nc(N)nc(C(C)(C)F)n1 (stereo not shown) [Example 33],strong activity,100%,80%,100%,100%,–,strong activity,–,–,–,–,–,–,–,"pest or weed control at 1000 g/ha (Abutilon [1]): 90%; degree of damage to the plants (% damage), Alopecurus (Alopecurus [18]): 100%; pest or weed control at 1000 g/ha (Amaranthus [2]): 100%; degree of damage to the plants (% damage), Setaria (Setaria [19]): 100%; degree of damage to the plants (% damage), Sinapis (Sinapis [3]): 100%; degree of damage to the plants (% damage), Xanthium (Xanthium [20]): 90%; degree of damage to the plants (% damage), Avena fatua (Avena fatua): 100%; degree of damage to the plants (% damage), Cyperus (Cyperus): 90%; degree of damage to the plants (% damage), Sinapis (Sinapis [17]): 100%"
CCC(CCc1ccccc1)Nc1nc(N)nc(C(F)(F)F)n1 (stereo not shown) [Example 43],–,100%,–,–,–,100%,strong activity,100%,–,100%,100%,90%,100%,10%,"degree of damage to the plants (% damage), Amaranthus (Amaranthus [7]; 1000 g of ai./ha): 100%; degree of damage to the plants (% damage), Galium (Galium): 70%; degree of damage to the plants (% damage), Setaria (Setaria [8]; 1000 g of ai./ha): 100%"
